One assay has as its system NK cells. As to the kind of experiment: NKG2A and NKG2D surface expression on bone marrow NK cells of Daudi lymphoma bearing mice (Example 4). The settings on record: bone marrow day 24; Conjugate 1 0.3 mg/kg SC days 14 and 21; antibody 0.5 mg/kg IP day 14. It counts as in vivo. As to the method:
Balb/c mice bearing Daudi B cell lymphoma tumors in the bone marrow (n=6/group) were intraperitoneally administered a single 0.5 mg/kg dose of the human CD38 protein targeting clinical antibody daratumumab (DARZALEX®, Janssen Biotech) or a nonspecific control antibody with a matching isotype on day 14 after Daudi cell intravenous inoculation. Additional groups were administered mono(methoxyPEG-N-butanamide)40 kD interleukin-15 (Conjugate 1) subcutaneously at a dose of 0.3 mg/kg as a single agent on days 14 and 21 after Daudi cell inoculation, or administered a combination treatment of Conjugate 1 administered subcutaneously at doses of 0.03 mg/kg or 0.3 mg/kg on days 14 and 21 after Daudi cell inoculation and daratumumab administered intraperitoneally at a dose of 0.5 mg/kg on day 14 after Daudi cell inoculation.
Three days following the second Conjugate 1 administration (day 24 after Daudi inoculation), bone marrow was collected and the NK cell fraction was measured by flow cytometry in total bone marrow. Expression of the cell surface activating receptor NKG2D and the inhibitory checkpoint receptor NKG2A are shown in FIGS. 7A and 7B, respectively.

For a further assay, the system named is CD56+ human NK cells. Briefly: Functional activation of human NK cells in PBMCs, CD69 and CD107a MFI by flow cytometry (Example 6). It counts as cell-based. The settings on record: overnight; Conjugate 1 1 μg/ml; plate coated with hIgG 0.1 mg/ml. As to the method:
(§1) Functional activation of human NK cells within a human peripheral blood mononuclear cells (PBMCs) preparation was induced in vitro. PBMCs from two donors were incubated overnight in the presence of (i) mono(methoxyPEG-N-butanamide)40 kD interleukin-15 (Conjugate 1) at a concentration of 1 μg/ml; (ii) on cell culture plastic that had been prior coated overnight with human total immunoglobulin G (hIgG) solution at a concentration of 0.1 mg/ml (iii) on cell culture plastic that had been prior coated overnight with human total immunoglobulin G (hIgG) solution at a concentration of 0.1 mg/ml and in the presence of Conjugate 1 at a concentration of 1 μg/ml; or (iv) on regular cell culture plastic.
(§2) After the incubation period, NK cell activation was measured with flow cytometry by measuring the increase of median fluorescence intensity (MFI) signal of CD69 (FIG. 9A) and CD107a (FIG. 9B) detecting antibodies on the surface of CD56+ human NK cells within the PBMCs. Functional activation of NK cells was assessed by calculating the fold-change in MFI when comparing control condition where the cells were exposed to neither hIgG nor Conjugate 1. […] Secreted granzyme B concentration also indicative of NK cell activation in the culture media at the end of the experiment was measured by ELISA (FIG. 9C).

Assay [1] concerns human multiple myeloma RPMI-8226 cells. As to the kind of experiment: ADCC of daratumumab-coated target cells by primed human NK cells (Example 12). It counts as cell-based. The settings on record: NK cells primed with 300 ng/mL overnight; daratumumab 1 μg/mL; E:T 10:1, 3 hours. As to the method: Human NK cells were magnetically sorted from normal donor PBMCs using negative selection. NK cells were seeded in a 96-well U-bottom plate at a density of 80,000 cells/well (FIG. 15A) OR 400,000 cells/well (FIG. 15B). NK cells were stimulated with 300 ng/mL of a long-acting IL-15 receptor agonist (mono(mPEG-butanamide)IL-15) (+) or left unstimulated (−) in complete RPMI-1640 media supplemented with 10% fetal bovine serum (FBS) and 1% antibiotic/antimycotic overnight at 37° C. in 5% CO2.
The human multiple myeloma RPMI-8226 cells (ATCC #CCL-155) were washed in PBS and stained with 0.15 μM CFSE for 5 min at 37° C. The stimulated NK cells (effector cells) and the daratumumab-coated (+1 μg/mL) CFSE-labeled tumor cells (target cells) were concurrently co-cultured in an E:T ratio of 10:1 for 3 hours at 37° C. in 5% CO2. Following incubation, cells were washed in flow staining buffer, Fc-blocked for 15 min at 4° C., and surface-stained (CD45, CD56, CD3-fluorescently conjugated antibodies). The cells were washed in PBS and incubated in 7-aminoactinomycin (7-AAD) viability stain for 30 minutes at 4° C. before acquiring for flow cytometric analysis using a Fortessa (BD). The percentage of 7-AAD+ CFSE+ target cells from total cell population is the percentage for dead tumor cells.

The test system of assay [2] is STAT5 phosphorylation in KHYG-1 cells. Briefly: Phosphorylation of STAT5 in KHYG-1 cells (Example 7). It counts as cell-based, human. The settings on record: 10 minutes. As to the method:
KHYG-1 cells were cultured in RPMI-1640 medium supplemented with 20% FBS, 2 mM L-glutamine, and 20 ng/mL IL-2 (Complete growth medium) in a humidified incubator at 37° C. and 5% CO2.
One day prior to treatment with test compounds, cells were seeded at a density of 500,000 viable cells/ml in Complete growth medium and incubated overnight under normal growth conditions. On the day of the assay, KHYG-1 cells were washed 3 times with DPBS, resuspended in assay medium (RPMI-1640 medium supplemented with 20% FBS, 2 mM L-glutamine), and incubated for 4-5 hours at 37° C., 5% CO2. Cells were adjusted to the appropriate density (8×10^5 cells/mL) in assay medium and 50,000 cells/well were aliquoted into wells of a 96-well plate (View-Plate 96, Perkin-Elmer).
KHYG-1 cells were stimulated with IL-15 or a long-acting IL-15 receptor agonist (mono(mPEG-butanamide)IL-15) followed by incubation at 37° C., 5% CO2 for 10 minutes. Treated cells were lysed on ice.
Detection of phospho-STAT5 protein levels in cell lysates was performed using the Phospho(Tyr694)/Total STAT5a,b Assay Whole Cell Lysate kit (MSD product #K15163D). Relative light unit (RLU) signal corresponding to phosphor-STAT5 was collected using a Sector® Imager 2400 plate reader (MSD) with the results provided in FIG. 10A.

In a further assay the test system is Daudi B cell lymphoma. Briefly: Survival in Daudi B cell lymphoma xenograft model, combination with rituximab (Example 1). It counts as in vivo, mice. The following applies: after about 35 days; agonist 0.3 mg/kg, days 14 and 17. As to the method: At day 0, SCID mice were intravenously injected with 1×10^7 Daudi cells. The mice were divided into four groups. On days 14 and 17 post-Daudi cell injection, the groups were treated by injection as follows: Group 1: isotype control antibody, Group 2: 40 mg/kg IP rituximab, Group 3: 0.3 mg/kg mono(methoxyPEG-N-butanamide)40 kD interleukin-15 (a long-acting IL-15 receptor agonist), Group 4: 40 mg/kg IP rituximab and 0.3 mg/kg SC mono(methoxyPEG-N-butanamide)40 kD interleukin-15 (combination).
The survival rate was determined by measuring the onset of hind limb paralysis as a surrogate parameter.

The subject of the next assay is human PBMCs. Briefly: Secreted granzyme B in PBMC culture media by ELISA (Example 6). Format: cell-based. The settings on record: overnight, Conjugate 1 1 μg/ml, plate coated with hIgG 0.1 mg/ml. As to the method:
as §1, §2
For orientation: An ELISA detects its analyte on a solid surface through an enzyme-linked reagent.

In the case of “mono(methoxyPEG-N-butanamide)40 kD interleukin-15 [Conjugate 1]”, in the assay on NK cells, the “% NK cells expressing NKG2A (mean, n = 6)” value is listed as 73.70% and the “% NK cells expressing NKG2D (mean, n = 6)” value is given as 2.157%. In the assay with CD56+ human NK cells, the “CD69 MFI fold-change relative to no stimulation control” value worked out at 1.8 fold and the “CD107a MFI fold-change relative to no stimulation control” value stood at 2.6 fold. The “ADCC, % 7-AAD+ target cells” value in assay [1] is reported as “enhance ADCC”. For the same substance, in assay [2], the “phosphorylation of STAT5” value is listed as “dose-dependent phosphorylation of STAT5” and the “potency in STAT5 phosphorylation, fold less than IL-15” value is roughly 3 fold. For the same substance, in the assay on Daudi B cell lymphoma, the survival was determined as 0%. In the assay with human PBMCs, the “Granzyme B concentration” value was found to be 56 pg/mL and the “Granzyme B concentration fold-change relative to no stimulation control” value was 4.1 fold.
